This note sets out measurements from PubChem BioAssay (NCI).

Among the test systems are HOP-92 NSCLC; M14 melanoma; MDA-MB-231 breast; NCI/ADR-RES ovarian; RPMI-8226 leukemia; SF-295 CNS; SF-539 CNS; SW-620 colon; T-47D breast; HCC-2998 colon.
Assay in all cases: NCI tumour cell line growth inhibition, 48 h

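A five-concentration, 48-hour dose response in 96-well plates underlies each endpoint, interpolated linearly between surrounding concentrations. Abbreviation: GI50, concentration required for 50% inhibition of growth. TGI: total growth inhibition.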 A value given as a limit tells only on which side of the number the result lay.

For the molecule `COc1cc2nc3cc([N+](=O)[O-])ccc3c(NCCNCC(C)O)c2cc1OC` (stereo unspecified), the GI50 is 0.367 µM in the assay with HOP-92 NSCLC; 1.25 µM in the assay with M14 melanoma; 0.604 µM in the assay on MDA-MB-231 breast; 7.42 µM in the assay with NCI/ADR-RES ovarian; 1.55 µM in the assay on RPMI-8226 leukemia; 0.484 µM with SF-295 CNS. Moreover, the results for the GI50 in the assay with SF-539 CNS, in the assay with SW-620 colon and in the assay with T-47D breast were 0.693 µM, 0.431 µM and 0.365 µM, respectively. For the same molecule, the TGI in the assay with HOP-92 NSCLC came out at 2.31 µM; in the assay with M14 melanoma, 2.96 µM; in the assay with MDA-MB-231 breast, 3.08 µM; in the assay with NCI/ADR-RES ovarian, 23.6 µM; in the assay on RPMI-8226 leukemia, 5.52 µM; in the assay with SF-295 CNS, 3.34 µM. For the same molecule, the TGI in the assay with SF-539 CNS was determined as 2.47 µM; in the assay with SW-620 colon, 3.09 µM; in the assay with T-47D breast it was 2.33 µM.

As to `CC[PH+](CC)CC.CC[PH+](CC)CC.[Au]`, the GI50 is 20.7 µM in the assay with HCC-2998 colon; 7.43 µM in the assay with HOP-92 NSCLC; 6.68 µM with M14 melanoma; 3.87 µM in the assay with RPMI-8226 leukemia; 13.5 µM with SF-295 CNS; 8.3 µM in the assay with SF-539 CNS. Further, the GI50 in the assay with SW-620 colon was 5.13 µM. Moreover, the TGI with HCC-2998 colon amounted to 35.2 µM; in the assay with HOP-92 NSCLC, 15.2 µM; in the assay with M14 melanoma it was 22 µM; in the assay on RPMI-8226 leukemia, 30.2 µM; in the assay on SF-295 CNS, 26.9 µM; in the assay on SF-539 CNS, 25.3 µM. In the assay on SW-620 colon, the TGI was determined as 15.6 µM.

With `CN(C)CCNC(=O)c1ccc2oc3cc4ccccc4c(=O)n3c2c1`, the GI50 is over 100 µM in the assay with HOP-92 NSCLC; 52 µM in the assay on M14 melanoma; 31.8 µM in the assay on MDA-MB-231 breast; 37.4 µM in the assay on NCI/ADR-RES ovarian; 51.2 µM in the assay with RPMI-8226 leukemia; 28 µM in the assay on SF-295 CNS. In addition, the GI50 is 22 µM in the assay with SF-539 CNS, 28.6 µM in the assay on SW-620 colon and 34.6 µM in the assay on T-47D breast. Besides, the TGI in the assay with HOP-92 NSCLC, in the assay with M14 melanoma, in the assay on MDA-MB-231 breast, in the assay on NCI/ADR-RES ovarian, with RPMI-8226 leukemia and with SF-295 CNS was over 100 µM throughout. The figures for the TGI in the assay on SF-539 CNS, with SW-620 colon and in the assay on T-47D breast were 47.3 µM, over 100 µM and over 100 µM, respectively.

As for `COC(=O)C1[C@H](c2ccc3c(c2)OCO3)OC(=O)[C@]1(C(=O)OC)C(=O)c1ccc(OC)c(OC)c1` (stereo partly specified), the TGI in the assay on HCC-2998 colon, in the assay with HOP-92 NSCLC, with M14 melanoma, with RPMI-8226 leukemia, in the assay on SF-295 CNS and in the assay with SW-620 colon was over 100 µM in each case.

As for `c1ccc2c(CNCCCCCCCCNCc3cccc4ccccc34)cccc2c1`, the TGI with HOP-92 NSCLC is 9.92 µM; in the assay with M14 melanoma, 3.18 µM; in the assay on RPMI-8226 leukemia, 3.87 µM; in the assay with SF-295 CNS, 3.32 µM; in the assay on SF-539 CNS, 3.04 µM; with SW-620 colon, 3.29 µM.

Regarding `NCCSC(c1ccccc1)(c1ccccc1)c1ccccc1`, the GI50 in the assay with M14 melanoma was 0.354 µM; with MDA-MB-231 breast it was 0.607 µM; in the assay with NCI/ADR-RES ovarian, 1.86 µM; in the assay on RPMI-8226 leukemia, 1.11 µM; in the assay on SF-295 CNS, 0.967 µM; with SF-539 CNS, 1.36 µM. For the same molecule, the GI50 with SW-620 colon is 0.558 µM; with T-47D breast, 2.62 µM. In addition, the TGI in the assay on M14 melanoma turned out to be 1.15 µM; with MDA-MB-231 breast, 2.33 µM; in the assay on NCI/ADR-RES ovarian it was 5.71 µM; in the assay on RPMI-8226 leukemia, 4.19 µM; with SF-295 CNS it was 2.76 µM; in the assay with SF-539 CNS, 3.21 µM. Moreover, the figures for the TGI with SW-620 colon and in the assay on T-47D breast were 2.48 µM and 8.42 µM, respectively.

For `NC(N)=N/N=C/c1c(-c2cccnc2)nc2sc(Cl)cn12`, the GI50 in the assay on HCC-2998 colon is 14.4 µM; in the assay on M14 melanoma it was 16.5 µM; in the assay with MDA-MB-231 breast, 7.95 µM; with NCI/ADR-RES ovarian it was 52.2 µM; with RPMI-8226 leukemia, 18 µM; with SF-295 CNS it was 13.8 µM. The GI50 with SF-539 CNS is 13.4 µM; with SW-620 colon, 6.13 µM. Also, the TGI in the assay with HCC-2998 colon was 27.5 µM; in the assay with M14 melanoma it was 30.1 µM; in the assay with MDA-MB-231 breast, 21.9 µM; in the assay on NCI/ADR-RES ovarian, over 100 µM; in the assay on RPMI-8226 leukemia it was 42 µM; in the assay with SF-295 CNS it was 28.1 µM. Moreover, the TGI in the assay on SF-539 CNS is 26.3 µM; in the assay on SW-620 colon, 20.7 µM.

In the case of `Cc1[nH]nc2ncc(C(=O)N3CCC[C@H]3c3ccc(Cl)cc3)cc12`, the GI50 with HCC-2998 colon is over 100 µM; with HOP-92 NSCLC it was 80.7 µM; in the assay on M14 melanoma, over 100 µM; in the assay on MDA-MB-231 breast, over 100 µM; in the assay on NCI/ADR-RES ovarian, over 100 µM; with RPMI-8226 leukemia, 63 µM. Further, the GI50 in the assay with SF-295 CNS is 63.5 µM; with SF-539 CNS it was 44.4 µM; in the assay on SW-620 colon, 76 µM. The TGI in the assay with HCC-2998 colon, in the assay with HOP-92 NSCLC, in the assay with M14 melanoma, with MDA-MB-231 breast, in the assay with NCI/ADR-RES ovarian and in the assay on RPMI-8226 leukemia was over 100 µM in each case. The TGI in the assay on SF-295 CNS, in the assay with SF-539 CNS and with SW-620 colon was over 100 µM throughout.

Consider `O=[N+]([O-])C=C1c2ccccc2-c2ccccc21`, for which the TGI with HCC-2998 colon was 30.6 µM; in the assay on M14 melanoma it was 25.3 µM; with RPMI-8226 leukemia it was 5.5 µM; in the assay on SF-295 CNS it was 33.5 µM; with SF-539 CNS, 31.3 µM; in the assay with SW-620 colon it was 31.2 µM.

Regarding `N#CCc1nnc(N)o1`, the TGI in the assay with HOP-92 NSCLC, in the assay with M14 melanoma, in the assay on RPMI-8226 leukemia, in the assay with SF-295 CNS, in the assay with SF-539 CNS and in the assay with SW-620 colon was over 100 µM each time.

With `Cc1ccc(C2=Nc3ccccc3S(=O)C(c3ccc4c(c3)OCO4)C2)cc1` (stereo unspecified), the TGI in the assay on HCC-2998 colon is over 10 µM; in the assay with M14 melanoma, 38 µM; with SF-295 CNS it was over 100 µM; in the assay on SF-539 CNS, 46.3 µM; in the assay on SW-620 colon, 34.5 µM.

`C=C1CC2(CCS(=O)(=O)c3ccccc32)OC1=O` (stereo unspecified): the TGI was 37.1 µM with HCC-2998 colon; 14.2 µM in the assay with HOP-92 NSCLC; 20.3 µM with M14 melanoma; 10.6 µM in the assay on RPMI-8226 leukemia; 45 µM in the assay with SF-295 CNS; 18.1 µM with SF-539 CNS. In the assay with SW-620 colon, the TGI came to 11.4 µM.
